Assay results published in the NIST ThermoML archive (doi:10.1016/j.jct.2018.07.013).

Assays:
[1] = 298.15 K, 100 kPa, Liquid; for speed of sound: Frequency=3 MHz, Single path-length method; for mass density: Vibrating tube method
[2] = xn = mol fraction of the nth substance listed; conditions: 298.15 K, 100 kPa, Liquid; for speed of sound: Frequency=3 MHz, Single path-length method; for mass density: Vibrating tube method
[3] = excess molar enthalpy (molar enthalpy of mixing); xn = mol fraction of the nth substance listed; conditions: 298.15 K, 100 kPa, Liquid, Power-compensation calorimetry

COC(=O)C(C)O (stereo not given) [methyl 2-hydroxypropanoate]
[1]
Conditions	mass density [kg/m3]	speed of sound [m/s]
–	1087.35	1339.3

CCO [ethanol] + COC(=O)C(C)O
[2], x2 = 0
Conditions	mass density [kg/m3]	speed of sound [m/s]
–	785.16	1143.2

CO [methanol] + CCOC(=O)C(C)O
[2], x2 = 0
Conditions	mass density [kg/m3]	speed of sound [m/s]
–	786.53	1104

CCO [ethanol] + CCOC(=O)C(C)O
[2], x2 = 0
Conditions	mass density [kg/m3]	speed of sound [m/s]
–	785.16	1143.2

CO [methanol]
[1]
Conditions	mass density [kg/m3]	speed of sound [m/s]
–	786.53	1104

CCCO [propan-1-ol] + COC(=O)C(C)O
[2], x2 = 0
Conditions	mass density [kg/m3]	speed of sound [m/s]
–	799.66	1206

CCCO [propan-1-ol]
[1]
Conditions	mass density [kg/m3]	speed of sound [m/s]
–	799.66	1206

CCOC(=O)C(C)O (stereo not drawn) [DL-ethyl lactate] + CO
Conditions	excess molar enthalpy, [3] [kcal/mol]	mass density, [2] [kg/m3]	speed of sound, [2] [m/s]
x1 = 0.0432	–	816.63	1125.5
x1 = 0.051	-0.0088	–	–
x1 = 0.0935	–	846.09	1149.1
x1 = 0.104	-0.0166	–	–
x1 = 0.1911	–	890.78	1187
x1 = 0.209	-0.0299	–	–
x1 = 0.2979	–	926.51	1215.4
x1 = 0.327	-0.0361	–	–
x1 = 0.3976	–	951.94	1234.5
x1 = 0.437	-0.0378	–	–
x1 = 0.5018	–	972.85	1250.5
x1 = 0.569	-0.0356	–	–
x1 = 0.5789	–	985.46	1259
x1 = 0.621	-0.0313	–	–
x1 = 0.695	–	1000.96	1270.3
x1 = 0.763	-0.0199	–	–
x1 = 0.8045	–	1012.66	1275.9
x1 = 0.83	-0.0134	–	–
x1 = 0.9018	–	1021.2	1278.2
x1 = 0.905	-0.00672	–	–
x1 = 0.958	-0.00263	–	–
x1 = 0.9622	–	1025.79	1279
x1 = 1	–	1028.45	1279.3

CCCCO [butan-1-ol] + CCOC(=O)C(C)O
[2], x2 = 0
Conditions	mass density [kg/m3]	speed of sound [m/s]
–	805.95	1240.4

CCCCO [butan-1-ol]
[1]
Conditions	mass density [kg/m3]	speed of sound [m/s]
–	805.95	1240.4

COC(=O)C(C)O (stereo not given) [methyl 2-hydroxypropanoate] + CCCO
Conditions	excess molar enthalpy, [3] [kcal/mol]	mass density, [2] [kg/m3]	speed of sound, [2] [m/s]
x1 = 0.045	–	815.93	1211.5
x1 = 0.05	0.0457	–	–
x1 = 0.1025	–	836.2	1218.9
x1 = 0.104	0.0832	–	–
x1 = 0.2047	–	870.81	1232.5
x1 = 0.207	0.134	–	–
x1 = 0.3	–	901.52	1245.4
x1 = 0.309	0.162	–	–
x1 = 0.4004	–	932.31	1259.8
x1 = 0.411	0.172	–	–
x1 = 0.501	0.17	–	–
x1 = 0.5012	–	961.71	1274.1
x1 = 0.5911	–	986.71	1286.9
x1 = 0.607	0.157	–	–
x1 = 0.6935	–	1013.88	1300.8
x1 = 0.707	0.133	–	–
x1 = 0.7978	–	1040.2	1315.1
x1 = 0.802	0.101	–	–
x1 = 0.9	–	1064.67	1327.6
x1 = 0.902	0.0531	–	–
x1 = 0.945	–	1075.04	1333.1
x1 = 0.95	0.0258	–	–
x1 = 1	–	1087.35	1339.3

CCCCO [butan-1-ol] + COC(=O)C(C)O
[2], x2 = 0
Conditions	mass density [kg/m3]	speed of sound [m/s]
–	805.95	1240.4

COC(=O)C(C)O (stereo not given) [methyl 2-hydroxypropanoate] + CCCCO
Conditions	excess molar enthalpy, [3] [kcal/mol]	mass density, [2] [kg/m3]	speed of sound, [2] [m/s]
x1 = 0.054	0.0531	–	–
x1 = 0.0589	–	822.83	1242.8
x1 = 0.1088	–	837.09	1245.1
x1 = 0.132	0.109	–	–
x1 = 0.174	0.138	–	–
x1 = 0.1905	–	860.37	1249.8
x1 = 0.287	0.186	–	–
x1 = 0.2973	–	890.71	1257.2
x1 = 0.384	0.204	–	–
x1 = 0.3887	–	916.62	1265
x1 = 0.487	0.207	–	–
x1 = 0.4999	–	948.04	1275.8
x1 = 0.552	0.2	–	–
x1 = 0.5977	–	975.58	1286.4
x1 = 0.6976	–	1003.57	1298.3
x1 = 0.705	0.16	–	–
x1 = 0.75	0.136	–	–
x1 = 0.7926	–	1030.02	1310.6
x1 = 0.864	0.0767	–	–
x1 = 0.9107	–	1062.72	1326.6
x1 = 0.934	0.039	–	–
x1 = 0.9577	–	1075.69	1333.2
x1 = 1	–	1087.35	1339.3

CCOC(=O)C(C)O (stereo not drawn) [DL-ethyl lactate] + CCCO
Conditions	excess molar enthalpy, [3] [kcal/mol]	mass density, [2] [kg/m3]	speed of sound, [2] [m/s]
x1 = 0.025	0.0229	–	–
x1 = 0.0489	–	816.57	1211.1
x1 = 0.054	0.0473	–	–
x1 = 0.1025	–	834.15	1216.4
x1 = 0.117	0.0815	–	–
x1 = 0.2027	–	864.58	1225.8
x1 = 0.216	0.109	–	–
x1 = 0.3036	–	892.35	1235.2
x1 = 0.309	0.12	–	–
x1 = 0.3973	–	915.89	1242.5
x1 = 0.404	0.121	–	–
x1 = 0.4963	–	938.64	1250.2
x1 = 0.517	0.115	–	–
x1 = 0.6012	–	960.68	1257.8
x1 = 0.612	0.101	–	–
x1 = 0.6951	–	978.76	1263.9
x1 = 0.712	0.0765	–	–
x1 = 0.8061	–	998.37	1270.4
x1 = 0.814	0.0459	–	–
x1 = 0.905	0.021	–	–
x1 = 0.9076	–	1014.74	1275.6
x1 = 0.9482	–	1020.9	1277.3
x1 = 1	–	1028.45	1279.3
